Experimental data published in patent publication US6887992B2, “3-cephem derivative crystal” (Otsuka Kagaku Kabushiki Kaisha, priority 1999, dated 2005).

Assay: Stability Test: storage, factor of decomposition determined by HPLC
Format: physicochemical
Method: Used were 100 g of clathrate crystals comprising 3-formylcephem compound (1) and dimethylformamide prepared in Example 1 and 100 g of 3-formylcephem compound (1) prepared in Reference Example 1 (amorphous product). They were stored in a thermostatic chamber at 20 to 25° C. and in a refrigerator at 3 to 5° C. for a specified time to determine a factor of decomposition by high performance liquid chromatorgraphy (HPLC). It is clear from the table that the cephalosporin crystals of the invention scarcely causes decomposition and are excellent in stability.

[1] = stored in refrigerator at 3 to 5° C. for 48 days
[2] = stored in thermostatic chamber at 20 to 25° C. for 14 days

Decomposition rate (%) [1]	Decomposition rate (%) [2]	SMILES
13%	59%	COc1ccc(COC(=O)C2=C(C=O)CSC3C(NC(=O)Cc4ccccc4)C(=O)N23)cc1 (stereo not shown) [amorphous product, p-methoxybenzyl ester of 7-phenylacetamide-3-formyl-3-cephem-4-carboxylic acid]
0%	2%	COc1ccc(COC(=O)C2=C(C=O)CSC3C(NC(=O)Cc4ccccc4)C(=O)N23)cc1 (stereo not shown) [crystal, p-methoxybenzyl ester of 7-phenylacetamide-3-formyl-3-cephem-4-carboxylic acid]
